Earlier results on one compound are cited in patent US20090004170A1, “COMPOSITION COMPRISING COENZYME Q10” (Kaneka Corporation, priority 2007, published 2009).

Assay in series [1]: not given
This is another data set of the same source.

`COC1=C(OC)C(=O)C(C/C=C(\C)CC/C=C(\C)CC/C=C(\C)CC/C=C(\C)CC/C=C(\C)CC/C=C(\C)CC/C=C(\C)CC/C=C(\C)CC/C=C(\C)CCC=C(C)C)=C(C)C1=O` [coenzyme Q10]: the solubility in water result was “sparingly soluble”. Also, the “absorbability by oral ingestion” value in series [1] was “extremely low”.
